# Test results published in ChEMBL document CHEMBL5696441 (Nat Chem Biol, 2011).
# Assays:
# [1] = biological target: ALK tyrosine kinase receptor (Homo sapiens) (UniProt Q9UM73); assay: Inhibition of ALK (unknown origin) assessed as remaining activity at 1 uM by Kinome scan method relative to control
# [2] = biological target: Mitogen-activated protein kinase 15 (Homo sapiens) (UniProt Q8TD08); assay: Inhibition of ERK8 (unknown origin) assessed as remaining activity at 1 uM by Kinome scan method relative to control
# [3] = biological target: Tyrosine-protein kinase Mer (Homo sapiens) (UniProt Q12866); assay: Inhibition of MERTK (unknown origin) assessed as remaining activity at 1 uM by Kinome scan method relative to control
# [4] = biological target: Ribosomal protein S6 kinase alpha-5 (Homo sapiens) (UniProt O75582); assay: Inhibition of C-terminal kinase domain RPS6KA5 (unknown origin) assessed as remaining activity at 1 uM by Kinome scan method relative to control
# [5] = biological target: Non-receptor tyrosine-protein kinase TYK2 (Homo sapiens) (UniProt P29597); assay: Inhibition of TYK2 JH2 domain (unknown origin) assessed as remaining activity at 1 uM by Kinome scan method relative to control
# [6] = biological target: Activin receptor type-1-like (Homo sapiens) (UniProt P37023); assay: Inhibition of human ACVRL1 assessed as residual activity at 1 uM using Casein as substrate in presence of 33P-ATP by ProQinase assay relative to control
# [7] = biological target: Fibroblast growth factor receptor 1 (Homo sapiens) (UniProt P11362); assay: Inhibition of human FGFR1 assessed as residual activity at 1 uM using PolyEY as substrate in presence of 33P-ATP by ProQinase assay relative to control
# [8] = biological target: T1, Inhibitor of nuclear factor kappa-B kinase subunit alpha (Homo sapiens) (UniProt O15111); assay: Inhibition of human IKKalpha assessed as residual activity at 1 uM using RBER-CHKtide as substrate in presence of 33P-ATP by ProQinase assay relative to control
# T1 sequence (whole entry): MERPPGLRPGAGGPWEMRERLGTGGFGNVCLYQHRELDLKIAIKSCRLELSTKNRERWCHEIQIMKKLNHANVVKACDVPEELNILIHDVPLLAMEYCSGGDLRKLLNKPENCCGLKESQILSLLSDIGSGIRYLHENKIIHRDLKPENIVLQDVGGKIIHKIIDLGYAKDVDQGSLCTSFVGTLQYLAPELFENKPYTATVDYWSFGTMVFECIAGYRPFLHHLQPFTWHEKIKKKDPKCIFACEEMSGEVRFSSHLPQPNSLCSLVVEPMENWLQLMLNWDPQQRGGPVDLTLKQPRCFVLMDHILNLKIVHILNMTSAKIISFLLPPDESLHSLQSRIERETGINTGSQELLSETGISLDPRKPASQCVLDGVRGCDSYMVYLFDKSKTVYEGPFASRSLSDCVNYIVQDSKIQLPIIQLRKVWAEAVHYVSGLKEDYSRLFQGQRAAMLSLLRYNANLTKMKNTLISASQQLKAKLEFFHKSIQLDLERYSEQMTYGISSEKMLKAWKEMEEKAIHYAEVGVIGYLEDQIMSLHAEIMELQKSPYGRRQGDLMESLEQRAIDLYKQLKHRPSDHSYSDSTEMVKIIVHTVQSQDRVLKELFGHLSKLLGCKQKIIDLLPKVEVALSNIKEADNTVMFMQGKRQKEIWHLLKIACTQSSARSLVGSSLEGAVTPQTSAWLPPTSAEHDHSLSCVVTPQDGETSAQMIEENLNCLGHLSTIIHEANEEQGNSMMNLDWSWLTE
# [9] = biological target: Tyrosine-protein kinase JAK2 (Homo sapiens) (UniProt O60674); assay: Inhibition of human JAK2 assessed as residual activity at 1 uM using poly(Ala,Glu,Lys,Tyr)6:2:5:1 as substrate in presence of 33P-ATP by ProQinase assay relative to control
# [10] = biological target: Tyrosine-protein kinase Lck (Homo sapiens) (UniProt P06239); assay: Inhibition of human LCK assessed as residual activity at 1 uM using polyEY as substrate in presence of 33P-ATP by ProQinase assay relative to control
# [11] = test system: Hepatocyte growth factor receptor (Homo sapiens), P08581 [F1200I]; assay: Inhibition of human MET F1200I mutant assessed as residual activity at 1 uM using poly(Ala,Glu,Lys,Tyr)6:2:5:1 as substrate in presence of 33P-ATP by ProQinase assay relative to control
# [12] = biological target: MAP kinase-interacting serine/threonine-protein kinase 2 (Homo sapiens) (UniProt Q9HBH9); assay: Inhibition of human MKNK2 assessed as residual activity at 1 uM using RB-S6P as substrate in presence of 33P-ATP by ProQinase assay relative to control
# [13] = biological target: T2, Serine/threonine-protein kinase Nek2 (Homo sapiens) (UniProt P51955); assay: Inhibition of human NEK2 assessed as residual activity at 1 uM using RB-CTF as substrate in presence of 33P-ATP by ProQinase assay relative to control
# T2 sequence (whole entry): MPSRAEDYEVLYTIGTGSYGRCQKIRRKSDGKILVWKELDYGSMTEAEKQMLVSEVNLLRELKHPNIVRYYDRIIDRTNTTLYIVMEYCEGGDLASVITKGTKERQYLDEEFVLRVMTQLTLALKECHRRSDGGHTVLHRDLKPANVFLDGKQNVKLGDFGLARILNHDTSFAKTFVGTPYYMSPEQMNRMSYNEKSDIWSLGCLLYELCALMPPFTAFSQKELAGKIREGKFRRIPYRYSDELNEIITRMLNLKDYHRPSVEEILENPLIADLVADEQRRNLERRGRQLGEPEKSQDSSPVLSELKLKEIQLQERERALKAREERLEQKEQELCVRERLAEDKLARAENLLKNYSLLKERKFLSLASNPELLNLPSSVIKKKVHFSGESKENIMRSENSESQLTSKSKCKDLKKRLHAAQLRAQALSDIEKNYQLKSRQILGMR
# [14] = biological target: T3, Phosphorylase b kinase gamma catalytic chain, liver/testis isoform (Homo sapiens) (UniProt P15735); assay: Inhibition of human PHKG2 assessed as residual activity at 1 uM using RBER-CHKtide as substrate in presence of 33P-ATP by ProQinase assay relative to control
# T3 sequence (whole entry): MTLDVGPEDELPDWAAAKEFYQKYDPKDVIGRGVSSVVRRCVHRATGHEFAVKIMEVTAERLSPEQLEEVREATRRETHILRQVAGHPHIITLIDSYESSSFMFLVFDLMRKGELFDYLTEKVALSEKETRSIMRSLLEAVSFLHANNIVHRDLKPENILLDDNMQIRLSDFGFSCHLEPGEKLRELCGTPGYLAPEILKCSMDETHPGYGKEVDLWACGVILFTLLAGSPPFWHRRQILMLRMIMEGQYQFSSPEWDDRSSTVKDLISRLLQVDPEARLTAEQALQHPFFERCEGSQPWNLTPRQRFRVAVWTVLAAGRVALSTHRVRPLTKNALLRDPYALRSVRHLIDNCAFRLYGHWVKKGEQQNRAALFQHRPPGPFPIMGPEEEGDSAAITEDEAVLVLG
# Sequence of Non-receptor tyrosine-protein kinase TYK2 (Homo sapiens) (P29597 whole entry, the tested form may be a part): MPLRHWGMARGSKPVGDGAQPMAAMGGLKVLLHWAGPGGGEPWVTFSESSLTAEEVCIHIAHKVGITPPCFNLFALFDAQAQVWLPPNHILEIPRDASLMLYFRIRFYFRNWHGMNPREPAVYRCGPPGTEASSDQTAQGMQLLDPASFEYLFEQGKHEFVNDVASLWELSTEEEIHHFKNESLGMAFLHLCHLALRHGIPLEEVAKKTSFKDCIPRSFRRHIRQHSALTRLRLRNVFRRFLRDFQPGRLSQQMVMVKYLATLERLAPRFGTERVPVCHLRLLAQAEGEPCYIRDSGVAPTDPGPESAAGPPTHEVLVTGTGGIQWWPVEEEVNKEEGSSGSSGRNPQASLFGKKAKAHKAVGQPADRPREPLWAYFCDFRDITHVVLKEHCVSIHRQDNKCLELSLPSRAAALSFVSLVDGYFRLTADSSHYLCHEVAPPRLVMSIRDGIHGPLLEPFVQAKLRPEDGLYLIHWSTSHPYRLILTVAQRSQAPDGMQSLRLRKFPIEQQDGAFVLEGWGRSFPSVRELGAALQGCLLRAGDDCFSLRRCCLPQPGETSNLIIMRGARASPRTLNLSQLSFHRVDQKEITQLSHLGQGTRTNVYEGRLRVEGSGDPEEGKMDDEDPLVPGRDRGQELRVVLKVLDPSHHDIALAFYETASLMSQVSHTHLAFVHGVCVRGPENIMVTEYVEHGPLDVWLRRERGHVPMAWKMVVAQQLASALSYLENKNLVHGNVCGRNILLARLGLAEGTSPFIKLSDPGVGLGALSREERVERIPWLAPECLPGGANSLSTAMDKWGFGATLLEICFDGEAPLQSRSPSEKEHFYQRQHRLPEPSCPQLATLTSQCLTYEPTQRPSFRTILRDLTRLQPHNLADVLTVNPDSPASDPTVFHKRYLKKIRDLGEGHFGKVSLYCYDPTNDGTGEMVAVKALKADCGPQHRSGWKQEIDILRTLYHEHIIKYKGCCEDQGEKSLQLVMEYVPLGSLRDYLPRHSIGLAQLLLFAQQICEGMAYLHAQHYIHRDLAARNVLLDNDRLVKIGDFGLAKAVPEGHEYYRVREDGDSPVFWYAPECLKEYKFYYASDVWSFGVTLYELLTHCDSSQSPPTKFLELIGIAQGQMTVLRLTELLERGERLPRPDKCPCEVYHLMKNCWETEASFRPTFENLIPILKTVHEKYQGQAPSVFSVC
# Sequence of ALK tyrosine kinase receptor (Homo sapiens) (Q9UM73 19-1620 limits assumed): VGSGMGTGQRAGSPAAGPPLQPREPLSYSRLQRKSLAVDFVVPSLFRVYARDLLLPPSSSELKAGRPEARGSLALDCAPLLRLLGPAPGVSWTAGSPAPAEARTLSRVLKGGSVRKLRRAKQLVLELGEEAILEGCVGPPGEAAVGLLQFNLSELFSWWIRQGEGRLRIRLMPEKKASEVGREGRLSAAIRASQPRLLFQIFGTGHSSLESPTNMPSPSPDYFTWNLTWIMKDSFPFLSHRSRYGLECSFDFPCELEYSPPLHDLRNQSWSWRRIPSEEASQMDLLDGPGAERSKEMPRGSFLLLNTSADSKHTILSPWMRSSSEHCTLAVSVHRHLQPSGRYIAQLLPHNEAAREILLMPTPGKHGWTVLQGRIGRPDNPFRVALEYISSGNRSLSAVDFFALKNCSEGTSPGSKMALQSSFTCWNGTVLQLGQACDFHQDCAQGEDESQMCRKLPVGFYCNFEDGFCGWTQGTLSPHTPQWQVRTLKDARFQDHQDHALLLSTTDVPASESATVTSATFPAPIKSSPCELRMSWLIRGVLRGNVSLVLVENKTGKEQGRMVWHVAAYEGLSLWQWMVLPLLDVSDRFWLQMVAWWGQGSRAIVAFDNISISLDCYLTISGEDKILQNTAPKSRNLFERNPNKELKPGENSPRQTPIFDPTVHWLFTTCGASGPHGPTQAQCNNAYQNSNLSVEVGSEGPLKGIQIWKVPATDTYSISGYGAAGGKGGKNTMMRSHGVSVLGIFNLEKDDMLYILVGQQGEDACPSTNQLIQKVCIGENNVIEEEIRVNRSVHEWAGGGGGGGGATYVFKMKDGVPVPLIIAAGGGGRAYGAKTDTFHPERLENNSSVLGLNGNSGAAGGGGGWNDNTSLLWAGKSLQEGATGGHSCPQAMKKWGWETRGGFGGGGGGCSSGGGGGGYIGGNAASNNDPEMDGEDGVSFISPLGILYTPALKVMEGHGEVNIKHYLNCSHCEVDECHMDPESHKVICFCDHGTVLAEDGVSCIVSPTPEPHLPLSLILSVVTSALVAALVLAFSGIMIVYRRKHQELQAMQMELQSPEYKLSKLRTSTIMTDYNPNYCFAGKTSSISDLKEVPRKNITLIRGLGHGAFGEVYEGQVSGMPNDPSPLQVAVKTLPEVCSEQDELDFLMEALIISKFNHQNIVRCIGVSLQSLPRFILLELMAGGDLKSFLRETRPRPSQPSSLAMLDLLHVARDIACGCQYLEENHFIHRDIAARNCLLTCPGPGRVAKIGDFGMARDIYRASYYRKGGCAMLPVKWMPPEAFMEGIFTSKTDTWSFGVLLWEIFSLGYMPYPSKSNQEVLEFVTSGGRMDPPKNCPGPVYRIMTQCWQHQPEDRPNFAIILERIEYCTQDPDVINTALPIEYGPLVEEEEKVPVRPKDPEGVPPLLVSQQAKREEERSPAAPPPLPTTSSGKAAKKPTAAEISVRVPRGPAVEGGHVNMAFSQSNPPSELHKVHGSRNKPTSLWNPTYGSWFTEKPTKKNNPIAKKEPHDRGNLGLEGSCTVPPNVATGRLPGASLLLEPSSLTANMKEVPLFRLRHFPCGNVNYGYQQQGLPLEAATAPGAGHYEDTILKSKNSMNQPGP
# Sequence of Mitogen-activated protein kinase 15 (Homo sapiens) (Q8TD08 whole entry): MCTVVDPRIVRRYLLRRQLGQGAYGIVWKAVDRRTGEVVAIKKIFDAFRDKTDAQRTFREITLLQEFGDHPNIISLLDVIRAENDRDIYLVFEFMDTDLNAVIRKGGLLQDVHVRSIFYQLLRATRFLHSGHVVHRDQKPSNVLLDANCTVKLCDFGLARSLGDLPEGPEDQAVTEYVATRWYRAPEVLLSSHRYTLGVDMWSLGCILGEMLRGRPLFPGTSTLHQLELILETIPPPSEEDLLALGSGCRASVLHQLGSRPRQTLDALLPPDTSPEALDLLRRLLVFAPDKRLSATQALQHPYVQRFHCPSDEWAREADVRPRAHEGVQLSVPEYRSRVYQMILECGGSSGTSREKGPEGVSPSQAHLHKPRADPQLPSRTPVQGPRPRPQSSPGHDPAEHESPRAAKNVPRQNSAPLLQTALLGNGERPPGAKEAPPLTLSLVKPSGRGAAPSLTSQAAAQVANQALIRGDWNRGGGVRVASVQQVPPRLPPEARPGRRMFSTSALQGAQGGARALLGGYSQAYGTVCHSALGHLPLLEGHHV
# Sequence of Ribosomal protein S6 kinase alpha-5 (Homo sapiens) (O75582 whole entry, looked up, the tested form may be a part): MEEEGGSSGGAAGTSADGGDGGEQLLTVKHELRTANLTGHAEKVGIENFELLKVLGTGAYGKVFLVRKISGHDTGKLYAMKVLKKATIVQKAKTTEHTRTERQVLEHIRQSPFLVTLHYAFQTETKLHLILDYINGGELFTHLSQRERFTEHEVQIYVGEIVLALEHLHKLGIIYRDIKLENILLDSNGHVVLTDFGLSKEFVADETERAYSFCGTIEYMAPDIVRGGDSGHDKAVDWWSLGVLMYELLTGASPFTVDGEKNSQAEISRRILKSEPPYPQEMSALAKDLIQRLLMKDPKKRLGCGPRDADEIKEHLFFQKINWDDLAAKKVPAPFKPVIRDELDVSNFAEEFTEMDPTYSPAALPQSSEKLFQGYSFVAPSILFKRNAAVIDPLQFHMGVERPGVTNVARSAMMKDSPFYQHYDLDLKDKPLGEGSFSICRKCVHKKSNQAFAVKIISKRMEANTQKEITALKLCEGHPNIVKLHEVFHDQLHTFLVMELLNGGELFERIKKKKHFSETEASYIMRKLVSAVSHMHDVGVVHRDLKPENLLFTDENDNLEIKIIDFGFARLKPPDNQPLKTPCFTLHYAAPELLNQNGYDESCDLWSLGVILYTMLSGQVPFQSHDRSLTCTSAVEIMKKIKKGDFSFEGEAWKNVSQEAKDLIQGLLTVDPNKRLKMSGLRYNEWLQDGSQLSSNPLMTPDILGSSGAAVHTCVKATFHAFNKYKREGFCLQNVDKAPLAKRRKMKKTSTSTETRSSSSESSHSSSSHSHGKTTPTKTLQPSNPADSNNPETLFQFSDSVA
# Sequence of MAP kinase-interacting serine/threonine-protein kinase 2 (Homo sapiens) (Q9HBH9 whole entry, looked up): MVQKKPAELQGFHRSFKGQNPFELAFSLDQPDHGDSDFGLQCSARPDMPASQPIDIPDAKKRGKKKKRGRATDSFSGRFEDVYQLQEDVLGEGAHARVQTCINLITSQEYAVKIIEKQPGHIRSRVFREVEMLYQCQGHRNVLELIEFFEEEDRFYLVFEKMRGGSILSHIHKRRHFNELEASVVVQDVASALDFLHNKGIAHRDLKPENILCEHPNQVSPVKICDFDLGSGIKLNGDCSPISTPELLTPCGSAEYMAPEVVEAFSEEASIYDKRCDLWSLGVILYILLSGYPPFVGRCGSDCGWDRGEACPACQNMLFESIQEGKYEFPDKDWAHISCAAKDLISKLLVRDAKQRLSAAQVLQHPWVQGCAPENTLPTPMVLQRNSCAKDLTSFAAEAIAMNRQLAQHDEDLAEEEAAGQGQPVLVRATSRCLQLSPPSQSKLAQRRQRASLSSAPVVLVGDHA
# Sequence of Activin receptor type-1-like (Homo sapiens) (P37023 whole entry): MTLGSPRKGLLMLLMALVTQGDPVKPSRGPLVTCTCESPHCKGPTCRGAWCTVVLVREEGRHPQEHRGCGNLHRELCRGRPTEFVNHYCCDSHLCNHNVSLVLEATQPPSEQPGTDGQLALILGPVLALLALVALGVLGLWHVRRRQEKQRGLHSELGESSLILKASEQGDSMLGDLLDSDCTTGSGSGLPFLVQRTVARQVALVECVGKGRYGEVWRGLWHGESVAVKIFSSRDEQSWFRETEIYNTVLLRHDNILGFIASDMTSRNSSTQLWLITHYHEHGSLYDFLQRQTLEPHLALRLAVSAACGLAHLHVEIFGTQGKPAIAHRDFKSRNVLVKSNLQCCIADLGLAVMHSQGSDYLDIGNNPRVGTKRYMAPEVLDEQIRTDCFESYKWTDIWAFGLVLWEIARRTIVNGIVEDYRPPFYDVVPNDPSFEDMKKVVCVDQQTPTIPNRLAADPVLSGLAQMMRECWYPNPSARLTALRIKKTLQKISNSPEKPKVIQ
smiles,measurement,setting,value
O=C1c2ccc(Nc3ccc(F)cc3F)cc2CCc2ccc(OC[C@H](O)CO)cc21 [Skepinone-L],Activity,[1],100%
same,Activity,[2],99%
same,Activity,[3],92%
same,Activity,[4],92%
same,Activity,[5],100%
same,Activity,[6],105%
same,Activity,[7],117%
same,Activity,[8],88%
same,Activity,[9],90%
same,Activity,[10],102%
same,Activity,[11],96%
same,Activity,[12],96%
same,Activity,[13],85%
same,Activity,[14],73%
